Like-named read-outs stand apart in the source and are kept apart here.
What was measured:
U-87 glioblastoma cells [1] = conditions: read-out: IC50 U87, cited from earlier work
518A2 melanoma cells [2] = conditions: cited from earlier work
[3] = test system: tested cancer and hybrid cell lines; experiment: MTT assay, average over all tested cancer and hybrid cell lines; conditions: for IC50: Homo sapiens; for SI (IC50 HDFa cells/IC50 tumor cell average): selectivity index, HDFa vs tumor cell average
Procedure: An 3-(4, 5-dimethylthiazol-2-yl)-2, 5-diphenyl tetrazolium bromid (MTT) assay was used for antiproliferative studies. Cancer cells (5 × 10^4 cells/mL, 100 μL/well) were placed in 96-well plates (10 × 10^4 cells/mL for HDFA and U87 cells), and the cells were incubated for 24 h at 5% CO2 and 95% humidity. Then, cells were treated with test compounds (at various concentrations) or solely with DMSO as a negative control for 72 h. Then, 12.5 μL of a 0.5% MTT solution in phosphate-buffered saline (PBS) was added to the cells, followed by incubation for 2 h at 37 °C. After centrifugation of the plates (300 × g, 5 min, 4 °C), the medium was discarded, and 25 μL of DMSO containing 10% SDS and 0.6% acetic acid was added, followed by incubation at 37 °C for at least 1 h. Formazan absorbance at λ = 570 nm was measured using a Tecan infinite F200 microplate reader and corrected for the background (λ = 630 nm). The 50% inhibitory concentration (IC50) values were calculated from dose-response curves (means ± SD, four independent experiments) compared to DMSO-treated control cells, which were set to 100%. GraphPad Prism 9 was used for curve-fitting.
The selectivity index (SI) was calculated as a measure of selectivity toward cancer cells compared to non-malignant cells.

[4] = test system: MCF-7 breast carcinoma cells; conditions: cited from earlier work
[5] = test system: HCT-116 p53-/- colon carcinoma cells; conditions: cited from earlier work
[6] = test system: KB-V1^Vbl cervix carcinoma cells; conditions: without verapamil, cited from earlier work
[7] = test system: EA.hy926 endothelial hybrid cells; conditions: cited from earlier work
MYB = molecular target: T1, MYB (Homo sapiens, UniProt P10242, K503R/K527R); experiment: Luciferase-dependent MYB activity assay (HEK-MYB-Luc reporter cells); type: cell-based; conditions: HEK-293 reporter cells, 16 h; read-out: IC50 inhibition of MYB activity
T1 construct: expressed in transfected cells; host or cells: HEK-293 (HEK-MYB-Luc reporter cell line)
T1 sequence (P10242 whole entry K503R/K527R): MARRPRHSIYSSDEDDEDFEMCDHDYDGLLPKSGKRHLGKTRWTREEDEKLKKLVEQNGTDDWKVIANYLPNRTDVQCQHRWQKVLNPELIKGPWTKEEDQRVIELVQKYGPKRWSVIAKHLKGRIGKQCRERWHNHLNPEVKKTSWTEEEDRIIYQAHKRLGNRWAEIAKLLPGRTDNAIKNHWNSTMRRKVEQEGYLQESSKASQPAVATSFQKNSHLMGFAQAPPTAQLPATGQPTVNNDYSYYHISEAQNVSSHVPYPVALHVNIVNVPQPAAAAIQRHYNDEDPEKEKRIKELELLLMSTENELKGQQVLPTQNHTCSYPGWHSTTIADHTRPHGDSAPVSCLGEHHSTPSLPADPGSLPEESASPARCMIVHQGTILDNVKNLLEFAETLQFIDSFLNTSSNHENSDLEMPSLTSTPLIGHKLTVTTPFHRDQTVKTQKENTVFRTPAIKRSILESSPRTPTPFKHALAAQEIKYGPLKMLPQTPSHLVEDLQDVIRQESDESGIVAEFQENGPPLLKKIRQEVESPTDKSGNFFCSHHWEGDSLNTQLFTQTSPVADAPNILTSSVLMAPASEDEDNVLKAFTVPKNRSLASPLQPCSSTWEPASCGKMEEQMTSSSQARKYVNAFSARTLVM
Procedure: Compounds were tested using the HEK-MYB-Luc reporter cell line, which allows a doxycycline-dependent induction of MYB expression and harbors an MYB-dependent luciferase reporter plasmid, as previously described. After 16 h of substance treatment (0.0001-3 µM), luciferase activities were analyzed as described.

[8] = test system: HCT-116 colon carcinoma cells; conditions: cited from earlier work
[9] = test system: HT-29 colon carcinoma cells; conditions: cited from earlier work
[10] = test system: HeLa cervix carcinoma cells; parameters: method as in Köhler et al.[20]; conditions: positive control; ref Köhler et al.[20]; cited from earlier work
[11] = test system: EA.hy926 endothelial hybrid cells; experiment: MTT antiproliferative assay, EA.hy926; type: cell-based; conditions: Homo sapiens, EA.hy 926, 72 h
From the text: (§1) The following cell lines were used: 518A2 melanoma (Department of Radiotherapy, Medical University of Vienna, Austria)[15], HeLa cervix carcinoma, KBV1^Vbl (ACC-149 cervix carcinoma, MCF7 [ACC-115]) breast carcinoma, U-87 glioblastoma, HT-29 (ACC-299), HCT-116 (ACC-581) and HCT-116p53-/- colon carcinoma, EA.hy926 (ATCC® CRL-2922^TM) endothelial hybrid cells, and HDFa (ATCC® PCS-201-012^TM) adult human dermal fibroblasts. […] Only mycoplasma-free cultures were used.

[12] = test system: HT-29 colon carcinoma cells; experiment: MTT antiproliferative assay, HT-29; type: cell-based; conditions: Homo sapiens, 72 h
From the text: as §1

[13] = test system: HeLa cervix carcinoma cells; experiment: MTT antiproliferative assay, HeLa; type: cell-based; conditions: Homo sapiens, 72 h
From the text: as §1

[14] = test system: KB-V1^Vbl cervix carcinoma cells; experiment: MTT antiproliferative assay, KB-V1Vbl (with or without verapamil); type: cell-based, human; conditions: for IC50: Homo sapiens, KB-V1/Vbl, 72 h, read-out: IC50 KB-V1^Vbl
From the text: as §1

zebrafish larvae = experiment: Zebrafish angiogenesis assay (SIV area); type: in vivo; conditions: 48 h treatment; for effect on SIV growth (angiogenesis): zebrafish larvae 24 hpf, 50-1000 nM
Procedure: Transgenic zebrafish (Tg(fli1:EGFP, casper mutant) were bred at 28 °C.[16] After fertilization, the eggs were transferred to E3-medium (5 mm NaCl, 0.17 mm KCl, 0.33 mm CaCl, 0.33 mm MgSO4, 0.01% methylene blue, pH 7.2), followed by incubation for 24 h. The chorion was manually removed, and the larvae were treated with test compounds or solvent in six-well plates (30 fish per concentration, 5 mL/well) for 48 h. The fluorescent vasculature was documented with a Leica MZ10F and Zeiss AxioCam MRrc. To quantify the angiogenesis, the sub-intestinal vein (SIV) area was measured using ImageJ and expressed as means ± SD with the control set to 100%. The significance of SIV reduction through substance treatment was assessed using one-way analysis of variance (ANOVA), *P < 0.05; **P < 0.01; ***P < 0.001; ****P < 0.0001, with Dunnett´s multiple comparison test (GraphPad Prism 9).

518A2 melanoma cells [15] = experiment: MTT antiproliferative assay, 518A2; type: cell-based; conditions: Homo sapiens, 72 h
From the text: as §1

U-87 glioblastoma cells [16] = experiment: MTT antiproliferative assay, U87; type: cell-based; conditions: Homo sapiens, 72 h
From the text: as §1

[17] = test system: HCT-116 colon carcinoma cells; experiment: MTT antiproliferative assay, HCT-116; type: cell-based; conditions: Homo sapiens, 72 h
From the text: as §1

[18] = test system: MCF-7 breast carcinoma cells; experiment: MTT antiproliferative assay, MCF-7; type: cell-based; conditions: Homo sapiens, MCF7, 72 h
From the text: as §1

[19] = test system: HCT-116 p53-/- colon carcinoma cells; experiment: MTT antiproliferative assay, HCT-116 p53-/-; type: cell-based; conditions: Homo sapiens, 72 h
From the text: as §1

[20] = test system: HDFa adult human dermal fibroblasts; experiment: MTT cytotoxicity assay, non-malignant HDFa; type: cell-based; conditions: 72 h, non-malignant cells
From the text: as §1

518A2 melanoma cells [21] = experiment: Cell-cycle analysis (FACS, propidium iodide); type: cell-based, human; conditions: 518A2 cells, 25 nM, 24 h
Procedure: 518A2 melanoma cells (10 × 10^4 cells/mL, 3 mL/well) were cultivated in six-well plates for 24 h. After the treatment with test compounds (10 and 25 nm), C-A4 (10 and 25 nm), or DMSO (vehicle) for an additional 24 h, the cells were trypsinized, centrifuged (300 × g, 5 min, 4 °C), and fixed in 70% EtOH for min. 24 h. For FACS measurement, cells were washed in PBS and stained with propidium iodide solution (50 µg/mL PI, 50 µg/mL RNase A in 0.1% sodium citrate) for 30 min at 37 °C. The DNA content of at least 10000 single cells was determined using a Beckmann Coulter Cytomics FC500 flow cytometer (λex = 488 nm, λem = 570 nm). CXP software (Beckman Coulter) was used to analyze the cells in the cell cycle phases (sub-G1, G1, S, G2/M).

[22] = test system: microtubule cytoskeleton of 518A2 melanoma cells; experiment: Microtubule immunofluorescence staining; type: cell-based, human; conditions: 518A2 cells, 100 nM
Procedure: The cells were treated with test compounds and controls (25 and 100 nm) for 0.5, 1, 3, and 6 h and washed with cytoskeletal buffer (100 nm PIPES, 3 nm MgCl2, 138 nm KCl, 2 nm EGTA, 300 nm sucrose, pH 6.8). Fixation and permeabilization were performed for 5 min with 3.7% formaldehyde and 0.2% Triton X-100 in a cytoskeletal buffer. The cells were fixed with cold EtOH for 10 s, rehydrated in PBS, and blocked with 1% bovine serum albumin in PBS for 30 min. The microtubules were stained for 1 h with primary (anti-α-tubulin, mouse monoclonal antibody) and secondary antibodies (goat anti-mouse IgG-AF-546, Invitrogen) and washed with PBS between each treatment. Nuclei were stained using DAPI (1 µg/mL in PBS) for 30 min. The coverslips were placed in Roti®-Mount FluorCare. Microtubules (λex = 488 nm, λem = 507 nm) and nuclei (λex = 358 nm, λem = 461 nm) were documented by confocal microscopy (Leica TCS SP5 confocal microscope, 630 × magnification) and edited with ImageJ.

[23] = test system: SW620/Ad300 colorectal cancer cells; parameters: method as in PMID 9187269, PMID 34977876; conditions: MDR SW620/Ad300 cells; cited from earlier work
[24] = positive control, ref Köhler et al.[20]
[25] = read-out: Average IC50 value of the tested cancer and hybrid cell lines (Ø IC50)
[26] = read-out: Average IC50 value of the tested cancer and hybrid cell lines (Ø IC50), average of all cell lines of Table 2

Compound	IC50 [3, 25] [µM]	IC50 (MYB) [µM]	IC50 [3, 26] [µM]	IC50 [11] [µM]	IC50 [12] [µM]	IC50 [13] [µM]	IC50 ([14]; MTT, without verapamil) [µM]	melting point [°C]	IC50 (518A2 melanoma cells [15]) [µM]	IC50 (U-87 glioblastoma cells [16]) [µM]	IC50 [17] [µM]	IC50 [18] [µM]	IC50 [19] [µM]	IC50 [20] [µM]	also measured
COc1cc(C2C(C#N)=C(N)Oc3c2ccc2ccccc32)cc(OC)c1OC (stereo not drawn) [1B]	0.053	0.00907	–	–	–	–	–	–	–	–	–	–	–	–	IC50 (U-87 glioblastoma cells [1]; [24]): 0.005 ± 0.0002 µM; IC50 (518A2 melanoma cells [2]; [24]): 0.03 ± 0.0001 µM; IC50 [4, 24]: 0.034 ± 0.0025 µM; IC50 [5, 24]: 0.03 ± 0.002 µM; IC50 ([6]; ref Köhler et al.[20]): 0.03 ± 0.001 µM; IC50 [7, 24]: 0.02 ± 0.001 µM; IC50 [8, 24]: 0.02 ± 0.0019 µM; IC50 [9, 24]: 0.3 ± 0.04 µM; IC50 [10]: 0.01 ± 0.001 µM
COc1c(I)cc(C2C(C#N)=C(N)Oc3c2c(=O)oc2ccccc32)cc1I (stereo not drawn) [1C]	–	–	> 0.5	–	–	–	–	–	–	–	–	–	–	–	IC50 (U-87 glioblastoma cells [1]; ref Köhler et al.[13]): 5.5 ± 0.3 µM; IC50 (518A2 melanoma cells [2]; ref Köhler et al.[13]): 1.5 ± 0.1 µM; IC50 ([4]; ref Köhler et al.[13]): 3.4 ± 0.2 µM; IC50 ([5]; ref Köhler et al.[13]): 2.9 ± 0.06 µM; IC50 ([6]; ref Köhler et al.[13]): 3.7 ± 0.06 µM; IC50 ([7]; ref Köhler et al.[13]): 2.8 ± 0.07 µM; IC50 ([8]; ref Köhler et al.[13]): 3.1 ± 0.1 µM; IC50 ([9]; ref Köhler et al.[13]): 2.5 ± 0.2 µM
COc1ccc2c(c1)OC(N)=C(C#N)C2c1cc(Cl)c(OC)c(OC)c1 (stereo not drawn) [2A, 2-Amino-3-cyano-4-(3’-chloro-4’, 5’-dimethoxyphenyl)-7-methoxy-4H-chromene]	–	0.00281 ± 0.0003	0.053	0.0004 ± 6e-05	0.3 ± 0.02	0.01 ± 0.0004	0.006 ± 0.0005	224 to 225	0.004 ± 0.0003	0.02 ± 0.003	0.07 ± 0.005	0.04 ± 0.007	0.07 ± 0.005	11.5	SI (IC50 HDFa cells/IC50 tumor cell average) [3]: 219; effect on SIV growth (angiogenesis) (zebrafish larvae): inhibited angiogenesis to an extent comparable to the known inhibitor axitinib
COc1ccc2c(c1)OC(N)=C(C#N)C2c1cc(Br)c(OC)c(Br)c1 (stereo not drawn) [2E, 2-Amino-3-cyano-4-(3’, 5’-dibromo-4’-methoxyphenyl)-7-methoxy-4H-chromene]	0.374	–	–	0.02 ± 0.001	0.3 ± 0.002	0.03 ± 0.003	–	–	0.02 ± 0.002	0.02 ± 0.002	0.02 ± 0.002	0.08 ± 0.003	0.04 ± 0.003	22.2	SI (IC50 HDFa cells/IC50 tumor cell average) [3]: 59; IC50 [14]: 3.2 ± 0.3 µM; fold lower IC50 values combined with verapamil ([14]; KB-V1^Vbl cells, verapamil 1 µM vs none): 320 fold; G2/M cell-cycle arrest (in words) (518A2 melanoma cells [21]): only a slight increase in G2/M phase cells
COc1ccc2c(c1)OC(N)=C(C#N)C2c1cc(I)c(OC)c(I)c1 (stereo not drawn) [2F, 2-Amino-3-cyano-4-(3,5-diiodo-4-methoxyphenyl)-7-methoxy-4H-chromene]	–	0.00231 ± 0.0004	0.043	0.02 ± 0.002	0.06 ± 0.001	0.03 ± 0.003	0.07 ± 0.007	–	0.02 ± 0.0004	0.05 ± 0.01	0.03 ± 0.005	0.08 ± 0.004	–	> 50	effect on SIV growth (angiogenesis) (zebrafish larvae): no significant change in blood vessel growth; concentration above which toxic effect occurs (zebrafish larvae; zebrafish larvae): above 250 nM; time to change/breakdown of the microtubule cytoskeleton [22]: 1 h; cells arrested before or during mitosis (G2/M) (518A2 melanoma cells [21]): about 74%
COc1ccc2c(c1)OC(N)=C(C#N)C2c1ccccc1Cl (stereo not drawn) [2H, 2-Amino-3-cyano-4-(2’-chlorophenyl)-7-methoxy-4H-chromene]	–	–	> 0.5	3.7 ± 0.3	5.3 ± 0.97	1.4 ± 0.1	1.9 ± 0.2	184	2 ± 0.1	7.4 ± 0.2	3.7 ± 0.4	5.1 ± 0.37	2.8 ± 0.3	–	–
COc1ccc(/C=C\c2cc(OC)c(OC)c(OC)c2)cc1O [C-A4, combretastatin A4, reference compound]	–	–	–	–	–	–	–	–	–	–	–	–	–	–	time to change of the microtubule structure [22]: 30 min; G2/M cell-cycle arrest (in words) (518A2 melanoma cells [21]): significant G2/M cell-cycle arrest
C#CCOc1ccc2c(c1)OC(N)=C(C#N)C2c1cc(Br)c(OC)c(OC)c1 (stereo not drawn) [compound 3, 2-Amino-3-cyano-4-(3’-bromo-4’, 5’-dimethoxyphenyl)-7-propargyloxy-4H-chromene]	0.321	–	–	0.08 ± 0.002	2.1 ± 0.3	0.04 ± 0.002	–	206 to 207	0.06 ± 0.003	0.09 ± 0.003	0.3 ± 0.01	0.07 ± 0.004	0.09 ± 0.007	–	IC50 [14]: 0.08 ± 0.003 µM
CC(=O)O[C@H]1C(=O)[C@@]2(C)[C@H]([C@H](OC(=O)c3ccccc3)[C@]3(O)C[C@H](OC(=O)[C@H](O)[C@@H](NC(=O)c4ccccc4)c4ccccc4)C(C)=C1C3(C)C)[C@]1(OC(C)=O)CO[C@@H]1C[C@@H]2O [paclitaxel]	–	–	–	–	–	–	–	–	–	–	–	–	–	–	reduction of effective concentration by treatment with P-gp modulators [23]: 100 fold
CC[C@]1(O)C[C@@H]2CN(CCc3c([nH]c4ccccc34)[C@@](C(=O)OC)(c3cc4c(cc3OC)N(C)[C@H]3[C@@](O)(C(=O)OC)[C@H](OC(C)=O)[C@]5(CC)C=CCN6CC[C@]43[C@@H]65)C2)C1 [vinblastine]	–	–	–	–	–	–	–	–	–	–	–	–	–	–	reduction of effective concentration by treatment with P-gp modulators [23]: 351 fold

— article PMC10099595, “Multimodal 4-arylchromene derivatives with microtubule-destabilizing, anti-angiogenic, and MYB-inhibitory activities” (Cancer Drug Resistance, 2023)
